Experiments:
[1] = The drug is tested on Z-007 corresponding to rat gut metagenome with ENA study accession number: PRJEB37062 and ENA sample accession number: ERS12561807 for biotransformation under anaerobic condition. The drug concentrations were measured over 9 timepoints collected between 0 and 24 hours of incubation by liquid-chromatography-coupled mass spectrometry (LC–MS); details: 2 µM
[2] = The drug is tested on Z-017 corresponding to mouse gut metagenome with ENA study accession number: PRJEB37062 and ENA sample accession number: ERS12561816 for biotransformation under anaerobic condition. The drug concentrations were measured over 9 timepoints collected between 0 and 24 hours of incubation by liquid-chromatography-coupled mass spectrometry (LC–MS); details: 2 µM
[3] = The drug is tested on Z-008 corresponding to metagenome with ENA study accession number: PRJEB37062 and ENA sample accession number: ERS12561808 for biotransformation under anaerobic condition. The drug concentrations were measured over 9 timepoints collected between 0 and 24 hours of incubation by liquid-chromatography-coupled mass spectrometry (LC–MS); details: 2 µM
[4] = The drug is tested on Z-019 corresponding to rat gut metagenome with ENA study accession number: PRJEB37062 and ENA sample accession number: ERS12561818 for biotransformation under anaerobic condition. The drug concentrations were measured over 9 timepoints collected between 0 and 24 hours of incubation by liquid-chromatography-coupled mass spectrometry (LC–MS); details: 2 µM
[5] = The drug is tested on Z-016 corresponding to mouse gut metagenome with ENA study accession number: PRJEB37062 and ENA sample accession number: ERS12561815 for biotransformation under anaerobic condition. The drug concentrations were measured over 9 timepoints collected between 0 and 24 hours of incubation by liquid-chromatography-coupled mass spectrometry (LC–MS); details: 2 µM
[6] = The drug is tested on Z-009 corresponding to pig gut metagenome with ENA study accession number: PRJEB37062 and ENA sample accession number: ERS12561809 for biotransformation under anaerobic condition. The drug concentrations were measured over 9 timepoints collected between 0 and 24 hours of incubation by liquid-chromatography-coupled mass spectrometry (LC–MS); details: 2 µM
[7] = The drug is tested on Z-005 corresponding to metagenome with ENA study accession number: PRJEB37062 and ENA sample accession number: ERS12561805 for biotransformation under anaerobic condition. The drug concentrations were measured over 9 timepoints collected between 0 and 24 hours of incubation by liquid-chromatography-coupled mass spectrometry (LC–MS); details: 2 µM
[8] = The drug is tested on WLS-098 corresponding to human gut metagenome with ENA study accession number: PRJEB37062 and ENA sample accession number: ERS12561754 for biotransformation under anaerobic condition. The drug concentrations were measured over 9 timepoints collected between 0 and 24 hours of incubation by liquid-chromatography-coupled mass spectrometry (LC–MS); details: 2 µM
[9] = human gut metagenome, 24 h, 2 µM
[10] = human gut metagenome, 24 h, 2 µM; remark: listed apart in the source
[11] = The drug is tested on WLS-052 corresponding to human gut metagenome with ENA study accession number: PRJEB37062 and ENA sample accession number: ERS12561747 for biotransformation under anaerobic condition. The drug concentrations were measured over 9 timepoints collected between 0 and 24 hours of incubation by liquid-chromatography-coupled mass spectrometry (LC–MS); details: 2 µM
[12] = The drug is tested on WLS-010 corresponding to human gut metagenome with ENA study accession number: PRJEB37062 and ENA sample accession number: ERS12561743 for biotransformation under anaerobic condition. The drug concentrations were measured over 9 timepoints collected between 0 and 24 hours of incubation by liquid-chromatography-coupled mass spectrometry (LC–MS); details: 2 µM
[13] = human gut metagenome, 24 h, 2 µM; remark: listed apart in the source
[14] = human gut metagenome, 24 h, 2 µM; remark: listed apart in the source
[15] = human gut metagenome, 24 h, 2 µM; remark: listed apart in the source
[16] = The drug is tested on WLS-350 corresponding to human gut metagenome with ENA study accession number: PRJEB37062 and ENA sample accession number: ERS12561789 for biotransformation under anaerobic condition. The drug concentrations were measured over 9 timepoints collected between 0 and 24 hours of incubation by liquid-chromatography-coupled mass spectrometry (LC–MS); details: 2 µM
[17] = human gut metagenome, 24 h, 2 µM; remark: listed apart in the source
[18] = human gut metagenome, 24 h, 2 µM; remark: listed apart in the source
[19] = The drug is tested on WLS-090 corresponding to human gut metagenome with ENA study accession number: PRJEB37062 and ENA sample accession number: ERS12561753 for biotransformation under anaerobic condition. The drug concentrations were measured over 9 timepoints collected between 0 and 24 hours of incubation by liquid-chromatography-coupled mass spectrometry (LC–MS); details: 2 µM
[20] = human gut metagenome, 24 h, 2 µM; remark: listed apart in the source
Further: call rule not given here.

| SMILES | Bacterial Biotransformation [1] | Bacterial Biotransformation [2] | Bacterial Biotransformation [3] | Bacterial Biotransformation [4] | Bacterial Biotransformation [5] | Bacterial Biotransformation [6] | Bacterial Biotransformation [7] | Bacterial Biotransformation [8] | Bacterial Biotransformation [9] | Bacterial Biotransformation [10] | Bacterial Biotransformation [11] | Bacterial Biotransformation [12] | Bacterial Biotransformation [13] | Bacterial Biotransformation [14] | Bacterial Biotransformation [15] | Bacterial Biotransformation [16] | Bacterial Biotransformation [17] | Bacterial Biotransformation [18] | Bacterial Biotransformation [19] | Bacterial Biotransformation [20] |
| --- | --- | --- | --- | --- | --- | --- | --- | --- | --- | --- | --- | --- | --- | --- | --- | --- | --- | --- | --- | --- |
| O=C1CCc2ccc(OCCCCN3CCN(c4cccc(Cl)c4Cl)CC3)cc2N1 [ARIPIPRAZOLE] | Compound NOT metabolized | Compound metabolized | Compound metabolized | Compound NOT metabolized | Compound metabolized | Compound metabolized | Compound metabolized |  |  |  |  |  |  |  |  |  |  |  |  |  |
| N#Cc1ccc2c(c1)N(CCCN1CCC(O)CC1)c1ccccc1S2 [PERICIAZINE] |  |  |  |  |  |  |  | Compound metabolized | Compound NOT metabolized | Compound NOT metabolized | Compound metabolized | Compound NOT metabolized | Compound NOT metabolized | Compound metabolized | Compound NOT metabolized | Compound NOT metabolized | Compound metabolized | Compound NOT metabolized | Compound metabolized | Compound metabolized |
| O=C([O-])C[C@H](O)C[C@H](O)/C=C/c1c(C2CC2)nc2ccccc2c1-c1ccc(F)cc1.O=C([O-])C[C@H](O)C[C@H](O)/C=C/c1c(C2CC2)nc2ccccc2c1-c1ccc(F)cc1.[Ca+2] [PITAVASTATIN CALCIUM] |  |  |  |  |  |  |  | Compound metabolized | Compound metabolized | Compound NOT metabolized | Compound metabolized | Compound metabolized | Compound metabolized | Compound metabolized | Compound NOT metabolized | Compound NOT metabolized | Compound metabolized | Compound NOT metabolized | Compound metabolized | Compound NOT metabolized |
| CNNCc1ccc(C(=O)NC(C)C)cc1 [PROCARBAZINE] |  |  | Compound NOT metabolized |  |  |  | Compound NOT metabolized | Compound metabolized | Compound NOT metabolized | Compound metabolized |  |  | Compound metabolized | Compound NOT metabolized | Compound NOT metabolized | Compound NOT metabolized | Compound NOT metabolized | Compound NOT metabolized | Compound NOT metabolized | Compound NOT metabolized |
| CC(=O)SCC(Cc1ccccc1)C(=O)NCC(=O)OCc1ccccc1 (stereo unspecified) [RACECADOTRIL] | Compound metabolized | Compound metabolized | Compound metabolized | Compound metabolized | Compound metabolized | Compound metabolized | Compound metabolized |  |  |  |  |  |  |  |  |  |  |  |  |  |
| O=C(O)c1cc(/N=N/c2ccc(S(=O)(=O)Nc3ccccn3)cc2)ccc1O [SULFASALAZINE] | Compound metabolized | Compound metabolized | Compound metabolized |  | Compound metabolized | Compound metabolized | Compound metabolized | Compound metabolized | Compound metabolized | Compound metabolized | Compound NOT metabolized | Compound metabolized | Compound metabolized | Compound metabolized | Compound metabolized | Compound metabolized | Compound metabolized | Compound metabolized | Compound metabolized | Compound metabolized |

Next, values leading:

| Bacterial Biotransformation [1] | Bacterial Biotransformation [2] | Bacterial Biotransformation [3] | Bacterial Biotransformation [4] | Bacterial Biotransformation [5] | Bacterial Biotransformation [6] | Bacterial Biotransformation [7] | Bacterial Biotransformation [8] | Bacterial Biotransformation [9] | Bacterial Biotransformation [10] | Bacterial Biotransformation [11] | Bacterial Biotransformation [12] | Bacterial Biotransformation [13] | Bacterial Biotransformation [14] | Bacterial Biotransformation [15] | Bacterial Biotransformation [16] | Bacterial Biotransformation [17] | Bacterial Biotransformation [18] | Bacterial Biotransformation [19] | Bacterial Biotransformation [20] | SMILES |
| --- | --- | --- | --- | --- | --- | --- | --- | --- | --- | --- | --- | --- | --- | --- | --- | --- | --- | --- | --- | --- |
| Compound NOT metabolized | Compound NOT metabolized | Compound NOT metabolized |  | Compound NOT metabolized | Compound metabolized | Compound NOT metabolized | Compound NOT metabolized | Compound NOT metabolized | Compound NOT metabolized |  |  | Compound NOT metabolized | Compound NOT metabolized | Compound NOT metabolized | Compound metabolized | Compound NOT metabolized | Compound NOT metabolized | Compound NOT metabolized | Compound metabolized | CN(C/C=C/C#CC(C)(C)C)Cc1cccc2ccccc12 [TERBINAFINE] |
| Compound NOT metabolized | Compound NOT metabolized | Compound metabolized | Compound NOT metabolized | Compound metabolized | Compound NOT metabolized | Compound metabolized | Compound metabolized | Compound metabolized |  | Compound metabolized | Compound metabolized | Compound metabolized | Compound metabolized | Compound metabolized | Compound metabolized |  | Compound metabolized | Compound metabolized |  | N#Cc1ccc2[nH]cc(CCCCN3CCN(c4ccc5oc(C(N)=O)cc5c4)CC3)c2c1 [VILAZODONE] |

From ChEMBL document CHEMBL5724914, “Linking interpersonal differences in gut microbiota composition and drug biotransformation activity” (2024)
